Laboratory results taken from patent US10414811B2, “Protease-resistant lipidated GLP-1 analogs” (MEDIMMUNE LIMITED, priority 2015, dated 2019).
Where two headings read alike, the source gives them in different places. Numbered stars: 1 amine (or outer) side, 2 acyl side, 3 side chain; on linkers, the order of the positions; unused ones are H or OH. Square brackets hold non-standard residues; d marks the D form. Side chains are listed from the residue outwards. Peptide text beside a SMILES is read from it. * marks the point of attachment. γGlu = O=C(O)[C@H](CCC(=O)[*:2])N[*:1]; αMeF = C[C@](N)(Cc1ccccc1)C(=O)O; αMeK = C[C@](N)(CCCCN)C(=O)O; Lauroyl = CCCCCCCCCCCC(=O)*; αMeS = C[C@](N)(CO)C(=O)O; AEEA = NCCOCCOCC(=O)O; Aib = CC(C)(N)C(=O)O

Columns and labels:
Type in all cases: cell-based
[1] = molecular target: T1, human glucagon receptor (GCGR) (Homo sapiens, UniProt P47871); assay: cAMP assay, human GCGR cells
T1 construct: expressed in transfected cells
Summary of the method: (§1)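 Peptide-stimulated cAMP measured by two-step HTRF after a 30 min room-temperature incubation with receptor-expressing cells (hGLP-1R, hGIPR at 1×10^5 cells/ml; hGCGR at 2×10^5 cells/ml). Duplicate dilutions; EC50 from 4-parameter logistic fit of % Delta F.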

[2] = molecular target: T2, human GLP-1 receptor (GLP-1R) (Homo sapiens, UniProt P43220); assay: cAMP assay, human GLP-1R cells
T2 construct: expressed in transfected cells
Summary of the method: as §1

[3] = molecular target: T3, human glucose-dependent insulinotropic peptide receptor (GIPR) (Homo sapiens, UniProt P48546); assay: cAMP assay, human GIPR cells
T3 construct: expressed in transfected cells
T3 sequence (P48546 22-466): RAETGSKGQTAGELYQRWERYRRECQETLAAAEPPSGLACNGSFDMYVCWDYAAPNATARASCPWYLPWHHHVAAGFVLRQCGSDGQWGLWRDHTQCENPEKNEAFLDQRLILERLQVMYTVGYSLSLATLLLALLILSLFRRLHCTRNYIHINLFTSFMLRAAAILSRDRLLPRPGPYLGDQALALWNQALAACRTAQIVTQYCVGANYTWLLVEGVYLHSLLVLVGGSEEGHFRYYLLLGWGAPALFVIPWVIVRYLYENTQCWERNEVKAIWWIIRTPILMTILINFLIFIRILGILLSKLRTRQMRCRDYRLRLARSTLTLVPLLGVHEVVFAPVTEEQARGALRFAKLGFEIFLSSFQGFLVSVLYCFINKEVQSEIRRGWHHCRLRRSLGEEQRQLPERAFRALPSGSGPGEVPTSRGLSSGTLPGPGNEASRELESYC
Summary of the method: as §1

[4] = first run (n1), cAMP activity of substituted and mono-lipidated peptides, read-out: Primary assay EC50 Gluc-R
[5] = second run (n2), cAMP activity, read-out: Primary assay EC50 Gluc-R
[6] = first run (n1), cAMP activity, read-out: Primary assay EC50 GLP-1R n1
[7] = mean of n1 and n2, read-out: Mean pM GLP-1R
[8] = second run (n2), cAMP activity, read-out: Primary assay EC50 GLP-1R n2
[9] = first run (n1), cAMP activity, read-out: Primary assay EC50 GIP-R
[10] = second run (n2), cAMP activity, read-out: Primary assay EC50 GIP-R
[11] = cAMP assay, first determination (n1), read-out: Primary assay EC50 Gluc-R (n1)
[12] = cAMP assay, second determination (n2), read-out: Primary assay EC50 Gluc-R (n2)
[13] = cAMP assay, first determination (n1), read-out: Primary assay EC50 GLP-1R n1
[14] = cAMP assay, second determination (n2), read-out: Primary assay EC50 GLP-1R n2
[15] = cAMP assay, first determination (n1), read-out: Primary assay EC50 GIP-R (n1)
[16] = cAMP assay, second determination (n2), read-out: Primary assay EC50 GIP-R (n2)

T1 sequence (P47871 26-477): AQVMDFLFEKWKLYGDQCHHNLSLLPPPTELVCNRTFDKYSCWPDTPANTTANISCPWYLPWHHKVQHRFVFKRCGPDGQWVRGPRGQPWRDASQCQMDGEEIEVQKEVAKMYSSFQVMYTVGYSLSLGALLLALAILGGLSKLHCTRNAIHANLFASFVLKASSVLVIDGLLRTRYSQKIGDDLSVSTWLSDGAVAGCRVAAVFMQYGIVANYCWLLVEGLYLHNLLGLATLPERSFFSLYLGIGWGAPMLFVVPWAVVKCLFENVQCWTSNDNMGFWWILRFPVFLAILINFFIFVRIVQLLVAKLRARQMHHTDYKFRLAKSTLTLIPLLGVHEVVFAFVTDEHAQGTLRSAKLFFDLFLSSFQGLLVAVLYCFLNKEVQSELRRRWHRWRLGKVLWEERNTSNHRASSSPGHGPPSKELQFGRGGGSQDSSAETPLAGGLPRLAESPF
T2 sequence (P43220 24-463): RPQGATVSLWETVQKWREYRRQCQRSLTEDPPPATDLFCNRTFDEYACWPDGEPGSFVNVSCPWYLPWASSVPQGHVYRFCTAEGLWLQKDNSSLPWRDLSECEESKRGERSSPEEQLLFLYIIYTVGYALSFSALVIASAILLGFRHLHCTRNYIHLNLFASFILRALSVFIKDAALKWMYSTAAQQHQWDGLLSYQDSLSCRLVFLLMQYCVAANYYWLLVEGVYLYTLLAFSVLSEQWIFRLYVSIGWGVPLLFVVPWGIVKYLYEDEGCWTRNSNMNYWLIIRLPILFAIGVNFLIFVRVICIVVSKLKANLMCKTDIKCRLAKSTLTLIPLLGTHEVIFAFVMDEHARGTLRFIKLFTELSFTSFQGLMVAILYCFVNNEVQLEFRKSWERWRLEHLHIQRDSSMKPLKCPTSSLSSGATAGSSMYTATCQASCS

Structure (SMILES): CC[C@H](C)[C@H](NC(=O)[C@](C)(Cc1ccccc1)NC(=O)[C@H](CCC(=O)O)NC(=O)[C@](C)(CCCCN)NC(=O)[C@H](C)NC(=O)[C@H](C)NC(=O)[C@H](CCC(=O)O)NC(=O)CNC(=O)[C@H](CCC(=O)O)NC(=O)[C@H](CC(C)C)NC(=O)[C@](C)(Cc1ccccc1)NC(=O)[C@H](CO)NC(=O)[C@](C)(CO)NC(=O)[C@@H](NC(=O)[C@H](CC(=O)O)NC(=O)[C@H](CO)NC(=O)[C@@H](NC(=O)[C@](C)(Cc1ccccc1)NC(=O)[C@H](CO)NC(=O)CNC(=O)[C@H](CCC(=O)O)NC(=O)C(C)(C)NC(=O)[C@@H](N)Cc1c[nH]cn1)[C@@H](C)O)C(C)C)C(=O)N[C@@H](C)C(=O)N[C@@](C)(Cc1ccccc1)C(=O)N[C@H](C(=O)N[C@H](C(=O)N[C@@H](CCCCNC(=O)CC[C@H](NC(=O)CCCCCCCCCCCCCCCCC(=O)O)C(=O)O)C(=O)NCC(=O)NCC(N)=O)C(C)C)C(C)C [compound 191]
- EC50 [1, 4]: ≥ 28 nM
- EC50 [1, 5]: ≥ 28 nM
- EC50 [2, 6]: 250 pM
- EC50 [2, 7]: 182 pM
- EC50 [2, 8]: 110 pM
- EC50 [3, 9]: ≥ 28 nM
- EC50 [3, 10]: ≥ 28 nM

Structure (SMILES): CCCCCCCCCCCC(=O)N[C@@H](CCC(=O)NCCOCCOCC(=O)NCCOCCOCC(=O)NCCCC[C@H](NC(=O)CNC(=O)[C@H](CCC(=O)O)NC(=O)[C@H](CCCCNC(=O)COCCOCCNC(=O)COCCOCCNC(=O)CC[C@H](NC(=O)CCCCCCCCCCC)C(=O)O)NC(=O)[C@H](Cc1ccc(O)cc1)NC(=O)[C@H](CO)NC(=O)[C@](C)(CO)NC(=O)[C@@H](NC(=O)[C@H](CC(=O)O)NC(=O)[C@H](CO)NC(=O)[C@@H](NC(=O)[C@](C)(Cc1ccccc1)NC(=O)[C@H](CO)NC(=O)CNC(=O)[C@H](CCC(=O)O)NC(=O)C(C)(C)NC(=O)[C@@H](N)Cc1c[nH]cn1)[C@@H](C)O)C(C)C)C(=O)N[C@@H](C)C(=O)N[C@@H](C)C(=O)N[C@@](C)(CCCCN)C(=O)N[C@@H](CCC(=O)O)C(=O)N[C@@H](Cc1ccccc1)C(=O)N[C@H](C(=O)N[C@@H](CCCCNC(=O)COCCOCCNC(=O)COCCOCCNC(=O)CC[C@H](NC(=O)CCCCCCCCCCC)C(=O)O)C(=O)N[C@@H](Cc1ccccc1)C(=O)N[C@H](C(=O)N[C@H](C(=O)N[C@@H](CCC(=O)O)C(=O)NCC(=O)NCC(N)=O)C(C)C)C(C)C)[C@@H](C)CC)C(=O)O [compound 452] (H-H[Aib]EGS[αMeF]TSDV[αMeS]SYK([AEEA-AEEA-γGlu-Lauroyl])EGK([AEEA-AEEA-γGlu-Lauroyl])AA[αMeK]EFIK([AEEA-AEEA-γGlu-Lauroyl])FVVEGG-NH2; N-terminus assumed)
- EC50 ([1]; tris-lipidated peptides, second replicate, read-out: Primary assay EC50 Gluc-R (n2)): 19.7 nM
- EC50 ([2]; tris-lipidated peptides, mean of n1 and n2, read-out: Primary assay EC50 Mean pM GLP-1R): 80.9 pM
- EC50 ([2]; tris-lipidated peptides, replicate n1, read-out: Primary assay EC50 GLP-1R n1): 85.7 pM
- EC50 ([2]; tris-lipidated peptides, replicate n2, read-out: Primary assay EC50 GLP-1R n2): 76.1 pM
- EC50 ([3]; tris-lipidated peptides, second replicate, read-out: Primary assay EC50 GIP-R (n2)): 19.7 nM

Structure (SMILES): CCCCCCCCCCCC(=O)N[C@@H](CCC(=O)N[C@@H](CCC(=O)N[C@@H](CCC(=O)NCCCC[C@H](NC(=O)[C@H](C)NC(=O)[C@H](C)NC(=O)[C@H](CCC(=O)O)NC(=O)CNC(=O)[C@H](CCC(=O)O)NC(=O)[C@H](CC(C)C)NC(=O)[C@](C)(Cc1ccccc1)NC(=O)[C@H](CO)NC(=O)[C@](C)(CO)NC(=O)[C@@H](NC(=O)[C@H](CC(=O)O)NC(=O)[C@H](CO)NC(=O)[C@@H](NC(=O)[C@](C)(Cc1ccccc1)NC(=O)[C@H](CO)NC(=O)CNC(=O)[C@H](CCC(=O)O)NC(=O)C(C)(C)NC(=O)[C@@H](N)Cc1c[nH]cn1)[C@@H](C)O)C(C)C)C(=O)N[C@@H](CCC(=O)O)C(=O)N[C@@](C)(Cc1ccccc1)C(=O)N[C@H](C(=O)N[C@@H](C)C(=O)N[C@@](C)(Cc1ccccc1)C(=O)N[C@H](C(=O)N[C@H](C(=O)N[C@@](C)(CCCCN)C(=O)NCC(=O)NCC(N)=O)C(C)C)C(C)C)[C@@H](C)CC)C(=O)O)C(=O)O)C(=O)O [compound 130]
- EC50 [1, 11]: ≥ 26 nM
- EC50 [1, 12]: ≥ 26 nM
- EC50 [2, 13]: 16 pM
- EC50 [2, 14]: 13 pM
- EC50 [2, 7]: 14.4 pM
- EC50 [3, 15]: ≥ 26 nM
- EC50 [3, 16]: ≥ 26 nM

Structure (SMILES): CC[C@H](C)[C@H](NC(=O)[C@](C)(Cc1ccccc1)NC(=O)[C@H](CCC(=O)O)NC(=O)[C@](C)(CCCCN)NC(=O)[C@H](C)NC(=O)[C@H](C)NC(=O)[C@H](CCC(=O)O)NC(=O)CNC(=O)[C@H](CCC(=O)O)NC(=O)[C@H](CC(C)C)NC(=O)[C@](C)(Cc1ccccc1)NC(=O)[C@H](CO)NC(=O)[C@](C)(CO)NC(=O)[C@@H](NC(=O)[C@H](CC(=O)O)NC(=O)[C@H](CO)NC(=O)[C@@H](NC(=O)[C@](C)(Cc1ccccc1)NC(=O)[C@H](CO)NC(=O)CNC(=O)[C@H](CCC(=O)O)NC(=O)C(C)(C)NC(=O)[C@@H](N)Cc1c[nH]cn1)[C@@H](C)O)C(C)C)C(=O)N[C@@H](C)C(=O)N[C@@](C)(Cc1ccccc1)C(=O)N[C@H](C(=O)N[C@H](C(=O)N[C@@H](CCCCNC(=O)CCCCCNC(=O)CCCCCCCCCCCCCCCCC(=O)O)C(=O)NCC(=O)NCC(N)=O)C(C)C)C(C)C [compound 194]
- EC50 [1, 4]: ≥ 28 nM
- EC50 [1, 5]: ≥ 28 nM
- EC50 [2, 6]: 240 pM
- EC50 [2, 7]: 154 pM
- EC50 [2, 8]: 68 pM
- EC50 [3, 9]: ≥ 28 nM
- EC50 [3, 10]: ≥ 28 nM

Structure (SMILES): CC[C@H](C)[C@H](NC(=O)[C@](C)(Cc1ccccc1)NC(=O)[C@H](CCC(=O)O)NC(=O)[C@H](CCCCNC(=O)COCCOCCNC(=O)COCCOCCNC(=O)COCCOCCNC(=O)CCCCCCCCCCCCCCCCC(=O)O)NC(=O)[C@H](C)NC(=O)[C@H](C)NC(=O)[C@H](CCC(=O)O)NC(=O)CNC(=O)[C@H](CCC(=O)O)NC(=O)[C@H](CC(C)C)NC(=O)[C@](C)(Cc1ccccc1)NC(=O)[C@H](CO)NC(=O)[C@](C)(CO)NC(=O)[C@@H](NC(=O)[C@H](CC(=O)O)NC(=O)[C@H](CO)NC(=O)[C@@H](NC(=O)[C@](C)(Cc1ccccc1)NC(=O)[C@H](CO)NC(=O)CNC(=O)[C@H](CCC(=O)O)NC(=O)C(C)(C)NC(=O)[C@@H](N)Cc1c[nH]cn1)[C@@H](C)O)C(C)C)C(=O)N[C@@H](C)C(=O)N[C@@](C)(Cc1ccccc1)C(=O)N[C@H](C(=O)N[C@H](C(=O)N[C@@](C)(CCCCN)C(=O)NCC(=O)NCC(N)=O)C(C)C)C(C)C [compound 163]
- EC50 [1, 11]: ≥ 25 nM
- EC50 [1, 12]: ≥ 25 nM
- EC50 [2, 13]: 63 pM
- EC50 [2, 14]: 49 pM
- EC50 [2, 7]: 56 pM
- EC50 [3, 15]: ≥ 25 nM
- EC50 [3, 16]: ≥ 25 nM

Structure (SMILES): CSCC[C@H](NC(=O)[C@H](CC(C)C)NC(=O)[C@](C)(Cc1ccccc1)NC(=O)[C@H](CCC(N)=O)NC(=O)[C@@H](NC(=O)[C@](C)(Cc1ccccc1)NC(=O)[C@H](CC(=O)O)NC(=O)[C@H](CCC(N)=O)NC(=O)[C@H](C)NC(=O)[C@H](CCCNC(=N)N)NC(=O)[C@H](CCCNC(=N)N)NC(=O)[C@H](CO)NC(=O)[C@H](CC(=O)O)NC(=O)[C@H](CC(C)C)NC(=O)[C@](C)(Cc1ccccc1)NC(=O)[C@H](CCCCN)NC(=O)[C@H](CO)NC(=O)[C@](C)(Cc1ccccc1)NC(=O)[C@H](CC(=O)O)NC(=O)[C@H](CO)NC(=O)[C@@H](NC(=O)[C@](C)(Cc1ccccc1)NC(=O)[C@H](CO)NC(=O)CNC(=O)[C@H](CCC(N)=O)NC(=O)C(C)(C)NC(=O)[C@@H](N)Cc1c[nH]cn1)[C@@H](C)O)C(C)C)C(=O)N[C@@H](CC(N)=O)C(=O)N[C@H](C(N)=O)[C@@H](C)O [compound 14] (H-H[Aib]QGS[αMeF]TSD[αMeF]SK[αMeF]LDSRRAQD[αMeF]VQ[αMeF]LMNT-NH2)
- EC50 [1, 11]: 3 nM
- EC50 [1, 12]: 1.1 nM
- EC50 [2, 13]: 3100 pM
- EC50 [2, 14]: 1800 pM
- EC50 [2, 7]: 2440 pM
- EC50 [3, 15]: 15 nM
- EC50 [3, 16]: 19 nM
